ChEMBL document CHEMBL1201862, “PubChem BioAssay data set” (2004)
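96-well plates; 48 h exposure; 5 concentrations. Endpoints by linear interpolation between flanking doses. Not reached: highest tested concentration assigned. The concentration for 50% growth inhibition is given as GI50.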 Activity calls are given as the source filed them. Cut-off read from the data, not from the text of the source: active = GI50 up to about 1.1 µM and inactive = higher.

What was measured:
Test in all cases: inhibition of tumour cell growth, NCI panel, 48 h
[1] = tested on: 786-0
[2] = tested on: A498
[3] = tested on: A549
[4] = tested on: ACHN
[5] = tested on: BT-549
[6] = tested on: CAKI-1
[7] = tested on: CCRF-CEM
[8] = tested on: COLO 205
[9] = tested on: DU-145
[10] = tested on: EKVX
[11] = tested on: HCC 2998
[12] = tested on: HCT-116
[13] = tested on: HCT-15
[14] = tested on: HL-60
[15] = tested on: HOP-62
[16] = tested on: HOP-92
[17] = tested on: HT-29
[18] = tested on: Hs-578T
[19] = tested on: IGROV-1
[20] = tested on: K562
[21] = tested on: KM12
[22] = tested on: LOX IMVI
[23] = tested on: M14
[24] = tested on: MCF7
[25] = tested on: MDA-MB-231
[26] = tested on: MDA-MB-435
[27] = tested on: MDA-N
[28] = tested on: MOLT-4
[29] = tested on: Malme-3M
[30] = tested on: NCI-H226
[31] = tested on: NCI-H23
[32] = tested on: NCI-H460
[33] = tested on: NCI-H522
[34] = tested on: NCI/ADR-RES
[35] = tested on: OVCAR-3
[36] = tested on: OVCAR-4
[37] = tested on: OVCAR-5
[38] = tested on: OVCAR-8
[39] = tested on: PC-3
[40] = tested on: RXF 393
[41] = tested on: SF-268
[42] = tested on: SF-295
[43] = tested on: SF-539
[44] = tested on: SK-MEL-28
[45] = tested on: SK-MEL-2
[46] = tested on: SK-MEL-5
[47] = tested on: SK-OV-3
[48] = tested on: SN12C
[49] = tested on: SNB-19
[50] = tested on: SNB-75
[51] = tested on: SW-620
[52] = tested on: T47D
[53] = tested on: TK-10
[54] = tested on: U-251
[55] = tested on: UACC-257
[56] = tested on: UACC-62
[57] = tested on: UO-31
[58] = tested on: RPMI-8226

COc1ccc(-c2oc3c(OC)c(OC)cc(O)c3c(=O)c2OC)cc1
GI50 [1]: > 100 µM (inactive) | GI50 [2]: 45.8 µM (inactive) | GI50 [3]: > 100 µM (inactive) | GI50 [4]: > 100 µM (inactive) | GI50 [5]: > 100 µM (inactive) | GI50 [6]: > 100 µM (inactive) | GI50 [7]: > 100 µM (inactive) | GI50 [8]: > 100 µM (inactive) | GI50 [9]: > 100 µM (inactive) | GI50 [10]: > 100 µM (inactive) | GI50 [11]: > 100 µM (inactive) | GI50 [12]: 46.5 µM (inactive) | GI50 [13]: > 100 µM | GI50 [14]: > 100 µM (inactive) | GI50 [15]: 55.8 µM (inactive) | GI50 [16]: 42.8 µM (inactive) | GI50 [17]: > 100 µM (inactive) | GI50 [18]: 58.3 µM (inactive) | GI50 [19]: > 100 µM (inactive) | GI50 [20]: > 100 µM (inactive) | GI50 [21]: > 100 µM (inactive) | GI50 [22]: 65 µM (inactive) | GI50 [23]: > 100 µM (inactive) | GI50 [24]: > 100 µM (inactive) | GI50 [25]: 69.2 µM (inactive) | GI50 [26]: > 100 µM (inactive) | GI50 [27]: > 100 µM (inactive) | GI50 [28]: > 100 µM (inactive) | GI50 [29]: > 100 µM (inactive) | GI50 [30]: > 100 µM (inactive) | GI50 [31]: > 100 µM (inactive) | GI50 [32]: > 100 µM (inactive) | GI50 [33]: 54.8 µM (inactive) | GI50 [34]: > 100 µM (inactive) | GI50 [35]: > 100 µM (inactive) | GI50 [36]: > 100 µM (inactive) | GI50 [37]: > 100 µM (inactive) | GI50 [38]: > 100 µM (inactive) | GI50 [39]: > 10 µM (inactive) | GI50 [40]: > 100 µM (inactive) | GI50 [41]: > 100 µM (inactive) | GI50 [42]: > 100 µM (inactive) | GI50 [43]: 28.8 µM (inactive) | GI50 [44]: > 100 µM (inactive) | GI50 [45]: > 100 µM (inactive) | GI50 [46]: 91.6 µM (inactive) | GI50 [47]: 36.5 µM (inactive) | GI50 [48]: > 100 µM (inactive) | GI50 [49]: > 100 µM (inactive) | GI50 [50]: > 10 µM (inactive) | GI50 [51]: > 100 µM (inactive) | GI50 [52]: > 100 µM (inactive) | GI50 [53]: > 100 µM (inactive) | GI50 [54]: 70.8 µM (inactive) | GI50 [55]: > 100 µM (inactive) | GI50 [56]: > 100 µM (inactive) | GI50 [57]: > 100 µM (inactive)

CC1=CC2C(O1)C1C(=O)C=CC(=O)C1=CC2[N+](=O)[O-] (stereo not drawn)
GI50 [1]: 12.3 µM (inactive) | GI50 [2]: 22.9 µM (inactive) | GI50 [3]: 19.4 µM (inactive) | GI50 [4]: 5.3 µM (inactive) | GI50 [5]: 15.8 µM (inactive) | GI50 [6]: 5.01 µM (inactive) | GI50 [7]: 3.85 µM (inactive) | GI50 [8]: 5.73 µM (inactive) | GI50 [9]: 25.4 µM (inactive) | GI50 [10]: 14.6 µM (inactive) | GI50 [11]: > 43.7 µM (inactive) | GI50 [12]: 13.8 µM (inactive) | GI50 [13]: 19.1 µM | GI50 [14]: 8.11 µM (inactive) | GI50 [15]: 21 µM (inactive) | GI50 [16]: 2.14 µM (inactive) | GI50 [17]: 16.5 µM (inactive) | GI50 [18]: 18.1 µM (inactive) | GI50 [19]: 17.9 µM (inactive) | GI50 [20]: 7.67 µM (inactive) | GI50 [21]: 24.3 µM (inactive) | GI50 [22]: 16.6 µM (inactive) | GI50 [23]: 14 µM (inactive) | GI50 [24]: 6.75 µM (inactive) | GI50 [25]: 19.8 µM (inactive) | GI50 [26]: 12.2 µM (inactive) | GI50 [27]: 23.1 µM (inactive) | GI50 [28]: 3.48 µM (inactive) | GI50 [30]: > 100 µM (inactive) | GI50 [31]: 19.9 µM (inactive) | GI50 [32]: 18.6 µM (inactive) | GI50 [33]: 1.71 µM (inactive) | GI50 [34]: 25.5 µM (inactive) | GI50 [35]: 16 µM (inactive) | GI50 [36]: 17.3 µM (inactive) | GI50 [37]: 24.5 µM (inactive) | GI50 [38]: 22.5 µM (inactive) | GI50 [39]: 19.9 µM (inactive) | GI50 [58]: 9.33 µM (inactive) | GI50 [40]: 14.8 µM (inactive) | GI50 [41]: 15 µM (inactive) | GI50 [42]: 18.7 µM (inactive) | GI50 [43]: 33.5 µM (inactive) | GI50 [44]: 27.4 µM (inactive) | GI50 [45]: 23.3 µM (inactive) | GI50 [46]: 17.5 µM (inactive) | GI50 [47]: > 100 µM (inactive) | GI50 [48]: 18.1 µM (inactive) | GI50 [49]: 34.6 µM (inactive) | GI50 [50]: 26.7 µM (inactive) | GI50 [51]: 3.61 µM (inactive) | GI50 [52]: 3.85 µM (inactive) | GI50 [53]: 16.1 µM (inactive) | GI50 [54]: 18.5 µM (inactive) | GI50 [55]: 16.9 µM (inactive) | GI50 [56]: 18.6 µM (inactive) | GI50 [57]: 5.22 µM (inactive)

CCOC(=O)c1c(N)nn2c1cc1cccccc12
GI50 [1]: 34.4 µM (inactive) | GI50 [2]: 29.4 µM (inactive) | GI50 [3]: 36.8 µM (inactive) | GI50 [4]: 27.9 µM (inactive) | GI50 [5]: 25.3 µM (inactive) | GI50 [6]: 27.9 µM (inactive) | GI50 [7]: 43.5 µM (inactive) | GI50 [8]: 31.9 µM (inactive) | GI50 [9]: 32.1 µM (inactive) | GI50 [10]: 16.3 µM (inactive) | GI50 [11]: 30 µM (inactive) | GI50 [12]: 33.5 µM (inactive) | GI50 [13]: 32.3 µM | GI50 [14]: 32.5 µM (inactive) | GI50 [15]: 29.8 µM (inactive) | GI50 [16]: 33.5 µM (inactive) | GI50 [17]: 36.2 µM (inactive) | GI50 [18]: 29.9 µM (inactive) | GI50 [19]: 27.9 µM (inactive) | GI50 [21]: 20.8 µM (inactive) | GI50 [22]: 25.1 µM (inactive) | GI50 [23]: 42.1 µM (inactive) | GI50 [24]: 16 µM (inactive) | GI50 [25]: 43 µM (inactive) | GI50 [26]: 31.8 µM (inactive) | GI50 [27]: 41.5 µM (inactive) | GI50 [28]: 25.7 µM (inactive) | GI50 [29]: 27.8 µM (inactive) | GI50 [31]: 29.3 µM (inactive) | GI50 [32]: 20.1 µM (inactive) | GI50 [33]: 20.1 µM (inactive) | GI50 [34]: 25.9 µM (inactive) | GI50 [35]: 28.2 µM (inactive) | GI50 [36]: 33.6 µM (inactive) | GI50 [37]: 59.8 µM (inactive) | GI50 [38]: 24.8 µM (inactive) | GI50 [39]: 23.6 µM (inactive) | GI50 [58]: 18.3 µM (inactive) | GI50 [40]: 6.14 µM (inactive) | GI50 [41]: 24.5 µM (inactive) | GI50 [42]: 25.1 µM (inactive) | GI50 [43]: 51.5 µM (inactive) | GI50 [44]: 29.9 µM (inactive) | GI50 [45]: 19.1 µM (inactive) | GI50 [46]: 26.1 µM (inactive) | GI50 [47]: 26.8 µM (inactive) | GI50 [48]: 32.9 µM (inactive) | GI50 [49]: 40.7 µM (inactive) | GI50 [51]: 32.5 µM (inactive) | GI50 [52]: 22.6 µM (inactive) | GI50 [53]: 19.5 µM (inactive) | GI50 [54]: 24 µM (inactive) | GI50 [55]: 27.4 µM (inactive) | GI50 [56]: 23.6 µM (inactive)
